Among the data in patent US20100144733A1, “Compounds, compositions and methods comprising heteroaromatic derivatives” (Institute for OneWorld Health, priority 2008, published 2010) are IC50 values, retold here.

Structures are written as SMILES.

The target of the first experiment is T1, CFTR (Homo sapiens, UniProt P13569).
T1 construct: endogenous in cells; host or cells: T84 human colonic cells (ECACC)
T1 sequence (P13569 whole entry): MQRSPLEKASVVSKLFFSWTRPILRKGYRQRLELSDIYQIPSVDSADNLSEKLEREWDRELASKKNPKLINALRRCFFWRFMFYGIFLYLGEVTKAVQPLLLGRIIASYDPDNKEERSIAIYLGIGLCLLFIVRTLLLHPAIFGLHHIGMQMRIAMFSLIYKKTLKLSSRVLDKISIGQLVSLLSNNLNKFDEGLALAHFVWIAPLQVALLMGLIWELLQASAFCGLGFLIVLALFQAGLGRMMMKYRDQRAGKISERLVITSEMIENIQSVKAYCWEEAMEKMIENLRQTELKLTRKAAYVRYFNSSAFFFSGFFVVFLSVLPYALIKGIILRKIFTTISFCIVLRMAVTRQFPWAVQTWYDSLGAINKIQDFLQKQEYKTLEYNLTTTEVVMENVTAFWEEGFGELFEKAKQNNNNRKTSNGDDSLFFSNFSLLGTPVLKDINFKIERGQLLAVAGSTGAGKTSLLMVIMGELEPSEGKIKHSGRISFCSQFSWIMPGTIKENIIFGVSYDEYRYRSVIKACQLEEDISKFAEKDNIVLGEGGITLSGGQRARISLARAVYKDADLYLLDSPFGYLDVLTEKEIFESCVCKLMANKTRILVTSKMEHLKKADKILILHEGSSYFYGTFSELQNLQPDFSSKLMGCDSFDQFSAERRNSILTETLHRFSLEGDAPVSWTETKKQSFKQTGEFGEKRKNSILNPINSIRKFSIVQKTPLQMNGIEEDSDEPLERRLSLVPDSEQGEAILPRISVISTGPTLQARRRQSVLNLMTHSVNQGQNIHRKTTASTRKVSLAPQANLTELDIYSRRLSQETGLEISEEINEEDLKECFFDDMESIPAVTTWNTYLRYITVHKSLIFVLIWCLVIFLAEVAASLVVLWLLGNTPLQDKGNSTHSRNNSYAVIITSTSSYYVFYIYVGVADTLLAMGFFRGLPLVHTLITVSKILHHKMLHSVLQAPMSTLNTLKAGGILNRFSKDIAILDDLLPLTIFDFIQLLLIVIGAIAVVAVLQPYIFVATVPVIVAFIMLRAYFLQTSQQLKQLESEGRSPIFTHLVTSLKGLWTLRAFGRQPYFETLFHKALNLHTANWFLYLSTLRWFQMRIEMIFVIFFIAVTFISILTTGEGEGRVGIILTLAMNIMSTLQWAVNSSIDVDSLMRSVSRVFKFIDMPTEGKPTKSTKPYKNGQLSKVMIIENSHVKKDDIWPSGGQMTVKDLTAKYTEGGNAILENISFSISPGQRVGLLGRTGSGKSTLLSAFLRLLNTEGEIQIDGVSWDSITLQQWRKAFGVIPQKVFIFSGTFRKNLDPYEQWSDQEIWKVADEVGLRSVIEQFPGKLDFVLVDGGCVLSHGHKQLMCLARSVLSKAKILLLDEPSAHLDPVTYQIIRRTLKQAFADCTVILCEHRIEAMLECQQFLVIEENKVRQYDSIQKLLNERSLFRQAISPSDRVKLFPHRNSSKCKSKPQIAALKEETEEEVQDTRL
Description: T84 assay (FLIPR membrane potential dye, forskolin/IBMX-stimulated CFTR channel activity). The class given is cell-based. Particulars: imidazole and triazole-containing compounds (Tables 13, 14, 14′), read-out: IC50 (μM) (T84 assay). Here is the method:
(§1) For example, Human colonic T84 cells can be acquired from the European Collection of Cell Cultures (ECACC) and grown in standard culture conditions as described by the supplier. On the day before assay 25,000 T84 cells per well are plated into standard black walled, clear bottom 384-well assay plates in standard growth medium consisting of DMEM:F12 with 10% FBS and incubated overnight. On the day of the assay the plates are washed using a standard assay buffer (HBSS with 10 mM Hepes) and incubated for 15 minutes in serum free cell culture medium before the addition of a commercially available membrane potential sensitive fluorescent dye (FLIPRRed membrane potential dye, Molecular Devices Corporation). T84 cells are incubated with the FLIPRRed membrane potential dye for 45 minutes in the presence and absence of test compound before being transferred to a commercially available fluorescence imaging plate reader (FLIPR384, Molecular Devices Corporation). Fluorescence levels are monitored continuously every second for 150 seconds; after an initial 10 second baseline, CFTR channel activity is stimulated through the addition of 10 μM forskolin in the presence of 100 μM of the phosphodiesterase inhibitor iso-butyl-methylxanthine (IBMX). Addition of the forskolin leads to the activation of intracellular adenylyl cylase 1, elevating cAMP levels and results in the phosphorylation and opening of CFTR anion channels. CFTR channel opening causes chloride ion efflux and subsequent depolarization of the cells, which is measured by an increase in fluorescence. CFTR inihibitor compounds prevent cell depolarization and the associatred increase in fluorescence.
as §1, with “Human colonic” for “For example, Human colonic”, “T84 cells are acquired from” for “T84 cells can be acquired from”, “(ECACC) and are grown in” for “(ECACC) and grown in”, “10 μM Forskolin in the” for “10 μM forskolin in the”, “fluorescence. CFTR inhibitor compounds prevent” for “fluorescence. CFTR inihibitor compounds prevent”, “and the associated increase in” for “and the associatred increase in”
On to `COCCOCCOCCOCCN(Cc1ccc(Cl)c(Cl)c1)C(=O)c1ncn(-c2cc(Cl)c(O)c(Cl)c2)n1` [111i, 1-(3,5-dichloro-4-hydroxyphenyl)-N-(3,4-dichlorobenzyl)-N-(2,5,8,11-tetraoxatridecan-13-yl)-1H-1,2,4-triazole-3-carboxamide], for which the IC50 was found to be 9.17 µM. Turning to `CC(C)(C)c1ccc(CN(CCOCCOCCOCCOCCOCCOCc2ccccc2)C(=O)c2ncn(-c3cc(Cl)c(O)c(Cl)c3)n2)cc1` [116i, N-(4-tert-butylbenzyl)-1-(3,5-dichloro-4-hydroxyphenyl)-N-(1-phenyl-2,5,8,11,14,17-hexaoxanonadecan-19-yl)-1H-1,2,4-triazole-3-carboxamide], the concentration for half-maximal inhibition (IC50) is 2.8 µM.

As to `O=C(NCc1cccc(-n2cccn2)c1)c1ncn(-c2cc(Cl)c(O)c(Cl)c2)n1` [46i], the IC50 stood at 28.6 µM. Turning to `CC(C)(C)CCN(Cc1cccc(C(F)(F)F)c1)C(=O)c1ncn(-c2cc(Cl)c(O)c(Cl)c2)n1` [79i, 1-(3,5-dichloro-4-hydroxyphenyl)-N-(3,3-dimethylbutyl)-N-(3-(trifluoromethyl)benzyl)-1H-1,2,4-triazole-3-carboxamide], the IC50 stood at 2.23 µM. The same measure, in the same setting: the same measure for `COCCOCCOCCOCCOCCOCCOCCOCCON(Cc1ccc(Oc2ccccc2)cc1)C(=O)c1ncn(-c2cc(Cl)c(O)c(Cl)c2)n1` [121i, N-(2,5,8,11,14,17,20,23-octaoxapentacosan-25-yloxy)-1-(3,5-dichloro-4-hydroxyphenyl)-N-(4-phenoxybenzyl)-1H-1,2,4-triazole-3-carboxamide]: 12.5 µM; for `CN(Cc1ccc(Cl)cc1)C(=O)c1ncn(-c2cc(Cl)c(O)c(Cl)c2)n1` [22i, N-(4-chlorobenzyl)-1-(3,5-dichloro-4-hydroxyphenyl)-N-methyl-1H-1,2,4-triazole-3-carboxamide]: 18.1 µM; for `CC(NC(=O)c1ncn(-c2cc(Cl)c(O)c(Cl)c2)n1)c1ccc(F)cc1` (centres unmarked) [9i, 1-(3,5-dichloro-4-hydroxyphenyl)-N-(1-(4-fluorophenyl)ethyl)-1H-1,2,4-triazole-3-carboxamide]: 17.6 µM. On the same count and under the same terms, the same measure for `CC(C)(C)CCN(Cc1cccc(OC(F)(F)F)c1)C(=O)c1ncn(-c2cc(Cl)c(O)c(Cl)c2)n1` [77i, 1-(3,5-dichloro-4-hydroxyphenyl)-N-(3,3-dimethylbutyl)-N-(3-(trifluoromethoxy)benzyl)-1H-1,2,4-triazole-3-carboxamide]: 3.01 µM.

Still in this experiment, the particulars now being: isoxazole-containing compounds (Table 10, 10′, 11, 11′), read-out: IC50.
In the case of `CN(Cc1cccc(C(F)(F)F)c1)C(=O)c1cc(-c2cc(Br)c(O)c(Br)c2)on1` [3g, 5-(3,5-dibromo-4-hydroxyphenyl)-N-methyl-N-(3-(trifluoromethyl)benzyl)isoxazole-3-carboxamide], the IC50 is 16.6 µM. Still for that read-out and setting: the same measure for `CN(Cc1ccc2c(c1)OCO2)C(=O)c1cc(-c2cc(Cl)c(O)c(Cl)c2)on1` [8g, N-(benzo[d][1,3]dioxol-5-ylmethyl)-5-(3,5-dichloro-4-hydroxyphenyl)-N-methylisoxazole-3-carboxamide]: 14.6 µM.

Still in this experiment, the particulars now being: oxadiazole-containing compounds (a series), average of at least 2 runs unless annotated n = 1, read-out: IC50.
As for `O=C(NCc1c(F)cccc1F)c1noc(-c2cc(Cl)c(O)c(Cl)c2)n1` [103a, 5-(3,5-dichloro-4-hydroxyphenyl)-N-(2,6-difluorobenzyl)-1,2,4-oxadiazole-3-carboxamide], the IC50 was found to be 9.64 µM. The same measure, in the same setting: the same measure for `O=C(c1nc(-c2cc(Br)c(O)c(Br)c2)no1)N1CCN(c2ccc(F)cc2F)CC1` [31a]: 17.1 µM; for `O=C(c1nc(-c2cc(Cl)c(O)c(Cl)c2)no1)N1CCC(Cc2ccccc2)CC1` [204a, (4-benzylpiperidin-1-yl)(3-(3,5-dichloro-4-hydroxyphenyl)-1,2,4-oxadiazol-5-yl)methanone]: 8.99 µM.

As to `O=C(NCc1ccc(F)cc1F)c1nc(-c2cc(Cl)c(O)c(Cl)c2)no1` [132a, 3-(3,5-dichloro-4-hydroxyphenyl)-N-(2,4-difluorobenzyl)-1,2,4-oxadiazole-5-carboxamide], the IC50 turned out to be 16.1 µM. Still for that read-out and setting: the same measure for `O=C(NCc1ccc(Oc2ccc(OC(F)(F)F)cc2)cc1)c1nc(-c2cc(Cl)c(O)c(Cl)c2)no1` [181a, 3-(3,5-dichloro-4-hydroxyphenyl)-N-(4-(4-(trifluoromethoxy)phenoxy)benzyl)-1,2,4-oxadiazole-5-carboxamide]: 18.7 µM; for `CN(C)c1ccc(CNC(=O)c2nc(-c3cc(Cl)c(O)c(Cl)c3)no2)cc1` [133a, 3-(3,5-dichloro-4-hydroxyphenyl)-N-(4-(dimethylamino)benzyl)-1,2,4-oxadiazole-5-carboxamide]: 17.9 µM; for `O=C(NCc1ccc(Cl)c(F)c1)c1nc(-c2cc(Cl)c(O)c(Cl)c2)no1` [123a, N-(4-chloro-3-fluorobenzyl)-3-(3,5-dichloro-4-hydroxyphenyl)-1,2,4-oxadiazole-5-carboxamide]: 16.4 µM.

Turning to `O=C(NCc1cccc(-c2ncccn2)c1)c1nc(-c2cc(Cl)c(O)c(Cl)c2)no1` [147a, 3-(3,5-dichloro-4-hydroxyphenyl)-N-(3-(pyrimidin-2-yl)benzyl)-1,2,4-oxadiazole-5-carboxamide], the IC50 worked out at 29.9 µM. Still for that read-out and setting: the same measure for `CN(Cc1ccc(N2CCOCC2)cc1)C(=O)c1nc(-c2cc(Cl)c(O)c(Cl)c2)no1` [187a, 3-(3,5-dichloro-4-hydroxyphenyl)-N-methyl-N-(4-morpholinobenzyl)-1,2,4-oxadiazole-5-carboxamide]: 24.4 µM; for `O=C(c1nc(-c2cc(Br)c(O)c(Br)c2)no1)N(Cc1cccnc1)Cc1cccc(C(F)(F)F)c1` [2a, 3-(3,5-dibromo-4-hydroxyphenyl)-N-(pyridin-3-ylmethyl)-N-(3-(trifluoromethyl)benzyl)-1,2,4-oxadiazole-5-carboxamide]: 1.03 µM. For the compound `O=C(CN(Cc1cccc(C(F)(F)F)c1)C(=O)c1nc(-c2cc(Cl)c(O)c(Cl)c2)no1)c1ccccc1` [90a, 3-(3,5-dichloro-4-hydroxyphenyl)-N-(2-oxo-2-phenylethyl)-N-(3-(trifluoromethyl)benzyl)-1,2,4-oxadiazole-5-carboxamide], the IC50 turned out to be 8.38 µM. Same read-out and setting: the same measure for `CN(Cc1cccc(C(F)(F)F)c1)C(=O)c1nc(-c2cc(Cl)c(O)c(Cl)c2)no1` [139a, 3-(3,5-dichloro-4-hydroxyphenyl)-N-methyl-N-(3-(trifluoromethyl)benzyl)-1,2,4-oxadiazole-5-carboxamide]: 5.1 µM. On the same count and under the same terms, the same measure for `CC#CCN(Cc1cccc(C(F)(F)F)c1)C(=O)c1nc(-c2cc(Cl)c(O)c(Cl)c2)no1` [98a, N-(but-2-ynyl)-3-(3,5-dichloro-4-hydroxyphenyl)-N-(3-(trifluoromethyl)benzyl)-1,2,4-oxadiazole-5-carboxamide]: 2.86 µM.

Turning to `O=C(NCc1ccc(Oc2ccc(F)c(C(F)(F)F)c2)cc1)c1nc(-c2cc(Cl)c(O)c(Cl)c2)no1` [200a, 3-(3,5-Dichloro-4-hydroxyphenyl)-N-(4-(4-fluoro-3-(trifluoromethyl)phenoxy)benzyl)-1,2,4-oxadiazole-5-carboxamide], the IC50 was found to be 13.2 µM.

On to `O=C(NCc1cccc(OC(F)F)c1)c1nc(-c2cc(Cl)c(O)c(Cl)c2)no1` [135a, 3-(3,5-dichloro-4-hydroxyphenyl)-N-(3-(difluoromethoxy)benzyl)-1,2,4-oxadiazole-5-carboxamide], for which the IC50 was determined as 20.4 µM.

As to `O=C(NCc1ccccc1)c1nc(-c2cc(Br)c(O)c(Br)c2)no1` [33a, N-benzyl-3-(3,5-dibromo-4-hydroxyphenyl)-1,2,4-oxadiazole-5-carboxamide], the IC50 turned out to be 17.8 µM. Turning to `CC(C)(C)CCNC(=O)c1nc(-c2cc(Br)c(O)c(Br)c2)no1` [105a, 3-(3,5-dibromo-4-hydroxyphenyl)-N-(3,3-dimethylbutyl)-1,2,4-oxadiazole-5-carboxamide], the IC50 amounted to 23.1 µM.

The same experiment, now with this note: thiadiazole-containing compounds (Table 12), read-out: IC50.
In the case of `Oc1c(Cl)cc(-c2nnc(CN3c4ccccc4Sc4ccccc43)s2)cc1Cl` [3h, 4-(5-((10H-Phenothiazin-10-yl)methyl)-1,3,4-thiadiazol-2-yl)-2,6-dichlorophenol], the IC50 came to 6.57 µM.

The same experiment, now with this note: triazine-containing compounds (Table 8 and 8′), read-out: IC50.
As for `N#Cc1ccc(COc2ncc(-c3cc(Br)c(O)c(Br)c3)nn2)cc1` [101e, 4-((6-(3,5-dibromo-4-hydroxyphenyl)-1,2,4-triazin-3-yloxy)methyl)benzonitrile], the IC50 came to 3.49 µM.

What is called IC50 is the concentration needed to halve the response being measured.
